Laboratory results: ChEMBL document CHEMBL5614442, “Discovery, synthesis and biological evaluation of novel isoquinoline derivatives as potent indoleamine 2, 3-dioxygenase 1 and tryptophan 2, 3-dioxygenase dual inhibitors” (Eur J Med Chem, 2024)
pIC50, pKd: −log10 of the molar value.

Tests used:
[1] = biological target: T1, Indoleamine 2,3-dioxygenase 1 (Homo sapiens, UniProt P14902); assay: Inhibition of N-terminal His-tagged recombinant human IDO1 extracted from Escherichia coli Transetta (DE3) using L-tryptophan as substrate preincubated for 5 mins followed by substrate addition and measured after 1 hrs by absorbance based microplate reader
Target sequence in this assay (P14902 whole entry): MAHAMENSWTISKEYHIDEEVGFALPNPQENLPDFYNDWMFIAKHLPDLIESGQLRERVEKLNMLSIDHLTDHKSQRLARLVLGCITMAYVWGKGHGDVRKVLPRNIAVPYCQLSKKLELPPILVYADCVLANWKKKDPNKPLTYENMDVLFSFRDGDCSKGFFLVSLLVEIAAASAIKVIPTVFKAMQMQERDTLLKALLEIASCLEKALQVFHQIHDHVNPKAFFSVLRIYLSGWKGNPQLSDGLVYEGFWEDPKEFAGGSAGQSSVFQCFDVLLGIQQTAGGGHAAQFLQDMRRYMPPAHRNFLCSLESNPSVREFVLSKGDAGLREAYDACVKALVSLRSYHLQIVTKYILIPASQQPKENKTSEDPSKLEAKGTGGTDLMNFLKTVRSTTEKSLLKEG

[2] = biological target: T2, Tryptophan 2,3-dioxygenase (Homo sapiens, UniProt P48775)
Target sequence in this assay (P48775 whole entry): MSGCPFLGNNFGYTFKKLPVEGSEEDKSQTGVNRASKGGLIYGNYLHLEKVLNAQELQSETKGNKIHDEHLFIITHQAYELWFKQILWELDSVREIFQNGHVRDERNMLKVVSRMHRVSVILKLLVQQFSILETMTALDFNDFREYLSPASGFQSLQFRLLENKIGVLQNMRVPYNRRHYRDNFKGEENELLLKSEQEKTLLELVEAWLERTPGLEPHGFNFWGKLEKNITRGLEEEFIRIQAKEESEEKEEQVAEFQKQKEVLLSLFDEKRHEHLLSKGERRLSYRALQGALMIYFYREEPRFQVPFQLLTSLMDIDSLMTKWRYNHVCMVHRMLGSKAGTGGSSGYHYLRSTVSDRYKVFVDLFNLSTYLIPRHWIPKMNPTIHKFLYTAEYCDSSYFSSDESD

[3] = biological target: T1, Indoleamine 2,3-dioxygenase 1; assay: Inhibition of IDO1 in IFN-gamma induced human HeLa cells using L-tryptophan as substrate incubated for 24 hrs by absorbance based microplate analysis; type: cell-based
Target sequence in this assay (P14902 whole entry): as the sequence (P14902 whole entry) above

[4] = biological target: T2, Tryptophan 2,3-dioxygenase; remark: listed apart in the source
Target sequence in this assay (P48775 whole entry): as the sequence (P48775 whole entry) above

[5] = tested on: HeLa; assay: Cytotoxicity against human HeLa cells assessed as reduction in cell viability at effective concentration incubated for 24 hrs by CCK8 assay; type: toxicity, cell-based
[6] = tested on: HEK-293T; assay: Cytotoxicity against HEK293T cells assessed as reduction in cell viability at effective concentration incubated for 24 hrs by CCK8 assay; type: toxicity, cell-based; settings: human
[7] = AUC (0 to t) in male Sprague-Dawley rat at 20 mg/kg, ip measured after 8 hrs by LC-MS analysis; type: ADME, organism-based; settings: in vivo
[8] = AUC (0 to infinity) in male Sprague-Dawley rat at 20 mg/kg, ip measured after 8 hrs by LC-MS analysis; type: ADME, organism-based; settings: in vivo
[9] = tested on: B16-F10; assay: Cytotoxicity against mouse B16-F10 cells assessed as reduction in cell viability at effective concentration incubated for 24 hrs by CCK8 assay; type: toxicity, cell-based; settings: b16-f10, 24 h
[10] = tested on: U-87 MG; assay: Cytotoxicity against human U87 cells assessed as reduction in cell viability at effective concentration incubated for 24 hrs by CCK8 assay; type: toxicity, cell-based; settings: u-87mg atcc
[11] = biological target: T1, Indoleamine 2,3-dioxygenase 1; assay: Binding affinity to recombinant human IDO1 assessed as dissociation rate constant at 0.78 to 25 uM by SPR analysis
Target sequence in this assay (P14902 whole entry): as the sequence (P14902 whole entry) above

[12] = biological target: T1, Indoleamine 2,3-dioxygenase 1; assay: Binding affinity to recombinant human IDO1 assessed as equilibrium dissociation constant by SPR analysis
Target sequence in this assay (P14902 whole entry): as above

[13] = AUC (0 to t) in male Sprague-Dawley rat at 2 mg/kg, iv measured after 8 hrs by LC-MS analysis; type: ADME, organism-based; settings: in vivo
[14] = AUC (0 to infinity) in male Sprague-Dawley rat at 2 mg/kg, iv measured after 8 hrs by LC-MS analysis; type: ADME, organism-based; settings: in vivo
[15] = Half-life in male Sprague-Dawley rat at 2 mg/kg, iv measured after 8 hrs by LC-MS analysis; type: ADME, organism-based; settings: in vivo
[16] = Tmax in male Sprague-Dawley rat at 2 mg/kg, iv measured after 8 hrs by LC-MS analysis; type: ADME, organism-based; settings: in vivo
[17] = Clearance in male Sprague-Dawley rat at 2 mg/kg, iv measured after 8 hrs by LC-MS analysis; type: ADME, organism-based; settings: in vivo
[18] = Volume of distribution in male Sprague-Dawley rat at 2 mg/kg, iv measured after 8 hrs by LC-MS analysis; type: ADME, organism-based; settings: in vivo
[19] = Cmax in male Sprague-Dawley rat at 2 mg/kg, iv measured after 8 hrs by LC-MS analysis; type: ADME, organism-based; settings: in vivo
[20] = Half-life in male Sprague-Dawley rat at 20 mg/kg, ip measured after 8 hrs by LC-MS analysis; type: ADME, organism-based; settings: in vivo
[21] = Tmax in male Sprague-Dawley rat at 20 mg/kg, ip measured after 8 hrs by LC-MS analysis; type: ADME, organism-based; settings: in vivo
[22] = Clearance in male Sprague-Dawley rat at 20 mg/kg, ip measured after 8 hrs by LC-MS analysis; type: ADME, organism-based; settings: in vivo
[23] = Volume of distribution in male Sprague-Dawley rat at 20 mg/kg, ip measured after 8 hrs by LC-MS analysis; type: ADME, organism-based; settings: in vivo
[24] = Cmax in male Sprague-Dawley rat at 20 mg/kg, ip measured after 8 hrs by LC-MS analysis; type: ADME, organism-based; settings: in vivo
[25] = Bioavailability in male Sprague-Dawley rat at 20 mg/kg, ip measured after 8 hrs by LC-MS analysis; type: ADME, organism-based; settings: in vivo
[26] = AUC (0 to t) in male Sprague-Dawley rat at 100 mg/kg, po measured after 8 hrs by LC-MS analysis; type: ADME, organism-based; settings: in vivo
[27] = AUC (0 to infinity) in male Sprague-Dawley rat at 100 mg/kg, po measured after 8 hrs by LC-MS analysis; type: ADME, organism-based; settings: in vivo
[28] = Half-life in male Sprague-Dawley rat at 100 mg/kg, po measured after 8 hrs by LC-MS analysis; type: ADME, organism-based; settings: in vivo
[29] = Tmax in male Sprague-Dawley rat at 100 mg/kg, po measured after 8 hrs by LC-MS analysis; type: ADME, organism-based; settings: in vivo
[30] = Clearance in male Sprague-Dawley rat at 100 mg/kg, po measured after 8 hrs by LC-MS analysis; type: ADME, organism-based; settings: in vivo
[31] = Volume of distribution in male Sprague-Dawley rat at 100 mg/kg, po measured after 8 hrs by LC-MS analysis; type: ADME, organism-based; settings: in vivo
[32] = Cmax in male Sprague-Dawley rat at 100 mg/kg, po measured after 8 hrs by LC-MS analysis; type: ADME, organism-based; settings: in vivo
[33] = Oral bioavailability in male Sprague-Dawley rat at 100 mg/kg measured after 8 hrs by LC-MS analysis; type: ADME, organism-based; settings: in vivo
[34] = tested on: B16-F10; assay: Antitumor activity against mouse B16-F10 cells implanted in male C57BL/6 mouse model assessed as suppression of tumor growth administered intraperitoneally once daily for 14 days; type: functional, cell-based; settings: dose 25-100 mg/kg, route ip, time 14.0 day
[35] = Toxicity in male C57BL/6 mouse implanted with mouse B16-F10 cells assessed as body weight loss at 25 to 100 mg/kg, ip administered once daily for 14 days; type: organism-based; settings: in vivo, 336 h, dose 25-100 mg/kg, time 14 day
[36] = Toxicity in male C57BL/6 mouse implanted with mouse B16-F10 cells assessed as effect on heart morphology at 25 to 100 mg/kg, ip administered once daily for 14 days by H and E staining based analysis; type: organism-based; settings: in vivo, 336 h, dose 25-100 mg/kg, time 14 day
[37] = Toxicity in male C57BL/6 mouse implanted with mouse B16-F10 cells assessed as effect on liver morphology at 25 to 100 mg/kg, ip administered once daily for 14 days by H and E staining based analysis; type: organism-based; settings: in vivo, 336 h, dose 25-100 mg/kg, time 14 day
[38] = Toxicity in male C57BL/6 mouse implanted with mouse B16-F10 cells assessed as effect on spleen morphology at 25 to 100 mg/kg, ip administered once daily for 14 days by H and E staining based analysis; type: organism-based; settings: in vivo, 336 h, dose 25-100 mg/kg, time 14 day
[39] = Toxicity in male C57BL/6 mouse implanted with mouse B16-F10 cells assessed as effect on lung morphology at 25 to 100 mg/kg, ip administered once daily for 14 days by H and E staining based analysis; type: organism-based; settings: in vivo, 336 h, dose 25-100 mg/kg, time 14 day
[40] = Toxicity in male C57BL/6 mouse implanted with mouse B16-F10 cells assessed as effect on kidney morphology at 25 to 100 mg/kg, ip administered once daily for 14 days by H and E staining based analysis; type: organism-based; settings: in vivo, 336 h, dose 25-100 mg/kg, time 14 day
[41] = biological target: T2, Tryptophan 2,3-dioxygenase; remark: listed apart in the source
Target sequence in this assay (P48775 whole entry): as the sequence (P48775 whole entry) above

[42] = biological target: T1, Indoleamine 2,3-dioxygenase 1; settings: dose 0.78-25 µM
Target sequence in this assay (P14902 whole entry, looked up): as the sequence (P14902 whole entry) above

[43] = biological target: T2, Tryptophan 2,3-dioxygenase; settings: dose 0.78-25 µM
Target sequence in this assay (P48775 whole entry, looked up): as the sequence (P48775 whole entry) above

[44] = biological target: T1, Indoleamine 2,3-dioxygenase 1; assay: Inhibition of IDO1 (unknown origin)
Target sequence in this assay (P14902 whole entry): as the sequence (P14902 whole entry) above

[45] = biological target: T2, Tryptophan 2,3-dioxygenase; assay: Inhibition of TDO (unknown origin)
Target sequence in this assay (P48775 whole entry): as the sequence (P48775 whole entry) above

COc1ccc2cc(-c3ccc(NC(=O)c4ccc(C(F)(F)F)cc4)cc3)ncc2c1O
pIC50 [1]: < 4.00 | pIC50 [2]: 5.49

COc1ccc2cc(-c3ccc(C(=O)Nc4ccccc4)cc3)ncc2c1O
pIC50 [1]: 5.00 | pIC50 [3]: < 4.52 | pIC50 [2]: 6.60 | pIC50 [4]: 4.65

COc1ccc2cc(-c3ccc(F)cc3)ncc2c1O
pIC50 [1]: < 4.00 | pIC50 [2]: 4.29

COc1ccc2cc(-c3ccc(NC(=O)C(F)(F)F)cc3)ncc2c1O
pIC50 [1]: 5.21 | pIC50 [2]: 5.94

COc1ccc2cc(-c3ccc(C(C)(C)C)cc3)ncc2c1OC
pIC50 [1]: < 4.00 | pIC50 [2]: 4.64

COc1ccc(-c2cc3ccc(OC)c(OC)c3cn2)cc1
pIC50 [1]: 4.95 | pIC50 [2]: 5.57

COc1ccc2cc(-c3cccnc3)ncc2c1OC
pIC50 [1]: < 4.00 | pIC50 [2]: < 4.00

COc1ccc(-c2ccc3c(O)c(OC)ccc3n2)cc1
pIC50 [1]: < 4.00 | pIC50 [2]: < 4.00

COc1ccc2cc(-c3ccc4c(c3)OCO4)ncc2c1O
pIC50 [1]: 5.29 | pIC50 [3]: < 4.52 | pIC50 [2]: 6.55 | pIC50 [4]: 4.59

COc1ccc2cc(C34C[C@H]5C[C@@H](C3)C[C@@H](C4)C5)ncc2c1OC
pIC50 [1]: 4.75 | pIC50 [2]: 5.58

COc1ccc2cc(-c3ccc(NC(C)=O)cc3)ncc2c1O
pIC50 [1]: 5.68 | pIC50 [3]: < 4.52 | pIC50 [2]: 6.46 | pIC50 [4]: < 4.52

COc1ccc2cc(-c3cccs3)ncc2c1O
pIC50 [1]: 4.68 | pIC50 [2]: 5.99

COc1ccc(-c2ncc3c(O)c(OC)ccc3n2)cc1
pIC50 [1]: < 4.00 | pIC50 [2]: < 4.00

COc1ccc2cc(-c3ccc(C)cc3)ncc2c1OC
pIC50 [1]: < 4.00 | pIC50 [2]: < 4.00

COc1ccc2cc(-c3ccccc3)ncc2c1OC
pIC50 [1]: 5.11 | pIC50 [3]: < 4.52 | pIC50 [2]: 6.47 | pIC50 [4]: < 4.52

COc1ccc2nc(-c3ccccc3)ncc2c1O
pIC50 [1]: < 4.00 | pIC50 [2]: < 4.00

COc1ccc2cc(-c3ccc(NS(=O)(=O)C(F)(F)F)cc3)ncc2c1O
pIC50 [1]: 6.51 | pIC50 [3]: 5.03 | Activity [5]: Non-Toxic | Activity [6]: Non-Toxic | AUC(0-t) at 8 h [7]: 6690 ng·h/mL | AUC(0-inf) [8]: 6660 ng·h/mL | Activity [9]: Non-Toxic | Activity [10]: Non-Toxic | koff [11]: 0.021 s⁻¹ | pKd [12]: 6.35 | AUC(0-t) at 8 h [13]: 916 ng·h/mL | AUC(0-inf) [14]: 917 ng·h/mL | half-life [15]: 2.14 h | Tmax [16]: 4.98 min | clearance [17]: 37.6 mL/min/kg | Vd [18]: 6.9 L/kg | Cmax [19]: 3420 ng/mL | half-life [20]: 1.2 h | Tmax [21]: 0.25 h | CL/F [22]: 50 mL/min/kg | Vd [23]: 5.17 L/kg | Cmax [24]: 11400 ng/mL | bioavailability [25]: 72.6% | AUC(0-t) at 8 h [26]: 23300 ng·h/mL | AUC(0-inf) [27]: 28400 ng·h/mL | half-life [28]: 2.8 h | Tmax [29]: 1.33 h | CL/F [30]: 59.7 mL/min/kg | Vd [31]: 14.376 L/kg | Cmax [32]: 5190 ng/mL | bioavailability [33]: 61.9% | Activity [34]: Dose-Dependent Effect | Activity [35]: Non-Toxic | Activity [36]: Non-Toxic | Activity [37]: Non-Toxic | Activity [38]: Non-Toxic | Activity [39]: Non-Toxic | Activity [40]: Non-Toxic | pIC50 [2]: 7.10 | pIC50 [4]: 5.14 | pKd [41]: 6.13 | Ka [42]: 4.69 10^4/Ms | Ka [43]: 4.9 10^4/Ms

COc1ccc2cc3[n+](cc2c1OC)CCc1cc2c(cc1-3)OCO2 [BERBERINE]
pIC50 [44]: 6.59 | pIC50 [45]: 7.52

COc1ccc2cc(-c3cc4ccccc4o3)ncc2c1OC
pIC50 [1]: < 4.00 | pIC50 [2]: < 4.00

COc1ccc2cc(-c3ccc(NC(=O)c4ccc(C)cc4)cc3)ncc2c1O
pIC50 [1]: < 4.00 | pIC50 [2]: 4.34
